Measured values from patent publication US20210024542A1 (Torcept Therapeutics, Inc., priority 2018, published 2021).

Columns and labels:
Hs 729 = experiment: OncoPanel cell proliferation assay, Hs 729; format: cell-based, human; conditions: for Relative cell count (%) Mean: Hs 729
Experimental: (§1) Cells were grown in RPMI 1640, 10% FBS, 2 mM L-alanyl-L-glutamine, 1 mM Na pyruvate, or a special medium. Cells were seeded into 384-well plates and incubated in a humidified atmosphere of 5% CO2 at 37° C. Compounds were added the day following cell seeding. At the same time, a time zero untreated cell plate was generated. After a 3-day incubation period, cells were fixed and stained to allow fluorescence imaging of nuclei. Compounds (1 mM stock solutions) were serially diluted in half-log steps from the highest test concentration ([…]), and assayed over 10 concentrations with a maximum assay concentration of 0.1% DMSO. Automated fluorescence microscopy was carried out using a Molecular Devices ImageXpress Micro XL high-content imager, and images were collected with a 4× objective. 16-bit TIFF images were acquired and analyzed with MetaXpress 5.1.0.41 software.
(§2) Cell proliferation was measured by the fluorescence intensity of an incorporated nuclear dye. The output is referred to as the relative cell count, where the measured nuclear intensity is transformed to percent of control (POC) using the following formula: […]
(§3) Cellular response parameters were calculated using nonlinear regression to a sigmoidal single-site dose response model:
(§4) Where y is a response measured at concentration x, A and B are the lower and upper limits of the response, C is the concentration at the response midpoint (EC50), and D is the Hill Slope (Ref. 1).
(§5) EC50 is the test compound concentration at the curve inflection point or half the effective response (parameter C of the fitted curve solution). GI50 is the concentration needed to reduce the observed growth by half (midway between the curve maximum and the time zero value). “Cell Count Activity Area” is an estimate of the integrated area above the curve (Barretina, et al. The Cancer Cell Line Encyclopedia enables predictive modelling of anticancer drug sensitivity. Nature 483: 603-607). […] In rare instances, values <0 or >10 may be observed. […] Curve-fitting, calculations, and report generation was performed using a custom data reduction engine and MathIQ based software (AIM).

G-402 = experiment: OncoPanel cell proliferation assay, G-402; format: cell-based, human; conditions: for Relative cell count (%) Mean: G-402
Experimental: as §1, §2, §3, §4, §5

CRO-AP2 = experiment: OncoPanel cell proliferation assay, CRO-AP2; format: cell-based, human; conditions: for Relative cell count (%) Mean: CRO-AP2
Experimental: as §1, §2, §3, §4, §5

SK-UT-1 = experiment: OncoPanel cell proliferation assay, SK-UT-1; conditions: for Relative cell count (%) Mean: SK-UT-1
Experimental: Cells were seeded into 384-well plates and incubated in a humidified atmosphere of 5% CO2 at 37° C. Compounds were added the day following cell seeding. At the same time, a time zero untreated cell plate was generated. After a 3-day incubation period, cells were fixed and stained to allow fluorescence imaging of nuclei. Compounds (1 mM stock solutions) were serially diluted in half-log steps from the highest test concentration (1 micromol), and assayed over 10 concentrations with a maximum assay concentration of 0.1% DMSO. Automated fluorescence microscopy was carried out using a Molecular Devices ImageXpress Micro XL high-content imager, and images were collected with a 4× objective. 16-bit TIFF images were acquired and analyzed with MetaXpress 5.1.0.41 software.
GI50 is the concentration needed to reduce the observed growth by half (midway between the curve maximum and the time zero value). […] In rare instances, values <0 or >10 may be observed. […] Curve-fitting, calculations, and report generation was performed using a custom data reduction engine and MathIQ based software (AIM).

T24 = experiment: OncoPanel cell proliferation assay, T24; format: cell-based, human; conditions: for Relative cell count (%) Mean: T24
Experimental: as §1, §2, §3, §4, §5

SK-N-AS = experiment: OncoPanel cell proliferation assay, SK-N-AS; format: cell-based, human
Experimental: as §1, §2, §3, §4, §5

CO[C@H]1C[C@@H]2CC[C@@H](C)[C@@](O)(O2)C(=O)C(=O)N2CCCC[C@H]2C(=O)O[C@H]([C@H](C)C[C@@H]2C[C@@H]3C[C@H]2C[C@H]3O)CC(=O)[C@H](C)/C=C(\C)[C@@H](O)[C@@H](OC)C(=O)[C@H](C)C[C@H](C)/C=C/C=C/C=C/1C [Formula I, 37R-hydroxynorbornylrapamycin]
EC50 (Hs 729; Homo sapiens, 72 h, Hs 729, 3-day incubation, read-out: Cell Count EC50): 14.1 nM | GI50 (Hs 729; Homo sapiens, 72 h, Hs 729, 3-day incubation, read-out: Cell Count GI50): 17.3 nM | IC50 (Hs 729; Homo sapiens, 72 h, Hs 729, 3-day incubation, read-out: Cell Count IC50): > 1000 nM | Cell Count Activity Area (Hs 729; Hs 729, scale 0-10): 1.80 | Relative cell count (%) Mean (Hs 729; 1.00E+00 microM): 65.5% | Relative cell count (%) Mean (Hs 729; 1.00E−01 microM): 69.6% | Relative cell count (%) Mean (Hs 729; 1.00E−02 microM): 79.6% | Relative cell count (%) Mean (Hs 729; 1.00E−03 microM): 87.3% | Relative cell count (%) Mean (Hs 729; 1.01E−04 microM): 95.7% | Relative cell count (%) Mean (Hs 729; 3.16E−01 microM): 63.1% | Relative cell count (%) Mean (Hs 729; 3.17E−02 microM): 76.9% | Relative cell count (%) Mean (Hs 729; 3.17E−03 microM): 79.1% | Relative cell count (%) Mean (Hs 729; 3.18E−04 microM): 87.7% | Relative cell count (%) Mean (Hs 729; 3.18E−05 microM): 91.5% | Cell Count Activity Area (G-402; G-402, scale 0-10): 4.95 | Relative cell count (%) Mean (G-402; 1.00E+00 microM): 31.5% | Relative cell count (%) Mean (G-402; 1.00E−01 microM): 37.2% | Relative cell count (%) Mean (G-402; 1.00E−02 microM): 41.4% | Relative cell count (%) Mean (G-402; 1.00E−03 microM): 49.2% | Relative cell count (%) Mean (G-402; 1.01E−04 microM): 70.9% | Relative cell count (%) Mean (G-402; 3.16E−01 microM): 34.9% | Relative cell count (%) Mean (G-402; 3.17E−02 microM): 46.6% | Relative cell count (%) Mean (G-402; 3.17E−03 microM): 48.8% | Relative cell count (%) Mean (G-402; 3.18E−04 microM): 54.9% | Relative cell count (%) Mean (G-402; 3.18E−05 microM): 89.9% | EC50 (G-402; Homo sapiens, 72 h, G-402, 3-day incubation, read-out: Cell Count EC50): 0.133 nM | GI50 (G-402; Homo sapiens, 72 h, G-402, 3-day incubation, read-out: Cell Count GI50): 0.332 nM | IC50 (G-402; Homo sapiens, 72 h, G-402, 3-day incubation, read-out: Cell Count IC50): 0.956 nM | Cell Count Activity Area (CRO-AP2; CRO-AP2, scale 0-10): 5.61 | Relative cell count (%) Mean (CRO-AP2; 1.00E+00 microM): 23.3% | Relative cell count (%) Mean (CRO-AP2; 1.00E−01 microM): 24.5% | Relative cell count (%) Mean (CRO-AP2; 1.00E−02 microM): 27.9% | Relative cell count (%) Mean (CRO-AP2; 1.00E−03 microM): 38.7% | Relative cell count (%) Mean (CRO-AP2; 1.01E−04 microM): 89.0% | Relative cell count (%) Mean (CRO-AP2; 3.16E−01 microM): 23.3% | Relative cell count (%) Mean (CRO-AP2; 3.17E−02 microM): 23.6% | Relative cell count (%) Mean (CRO-AP2; 3.17E−03 microM): 29.7% | Relative cell count (%) Mean (CRO-AP2; 3.18E−04 microM): 59.0% | Relative cell count (%) Mean (CRO-AP2; 3.18E−05 microM): 93.4% | EC50 (CRO-AP2; Homo sapiens, 72 h, CRO-AP2, 3-day incubation, read-out: Cell Count EC50): 0.319 nM | GI50 (CRO-AP2; Homo sapiens, 72 h, CRO-AP2, 3-day incubation, read-out: Cell Count GI50): 0.434 nM | IC50 (CRO-AP2; Homo sapiens, 72 h, CRO-AP2, 3-day incubation, read-out: Cell Count IC50): 0.536 nM | EC50 (SK-UT-1; Homo sapiens, SK-UT-1, 72 h, read-out: Cell Count EC50): 0.284 nM | GI50 (SK-UT-1; Homo sapiens, SK-UT-1, 72 h, read-out: Cell Count GI50): 2.01 nM | IC50 (SK-UT-1; Homo sapiens, SK-UT-1, 72 h, read-out: Cell Count IC50): 11.7 nM | Cell Count Activity Area (SK-UT-1; SK-UT-1, scale 0-10): 3.95 | Relative cell count (%) Mean (SK-UT-1; 1.00E+00 microM): 50.0% | Relative cell count (%) Mean (SK-UT-1; 1.00E−01 microM): 57.6% | Relative cell count (%) Mean (SK-UT-1; 1.00E−02 microM): 52.2% | Relative cell count (%) Mean (SK-UT-1; 1.00E−03 microM): 72.8% | Relative cell count (%) Mean (SK-UT-1; 1.01E−04 microM): 94.8% | Relative cell count (%) Mean (SK-UT-1; 3.16E−01 microM): 48.7% | Relative cell count (%) Mean (SK-UT-1; 3.17E−02 microM): 53.1% | Relative cell count (%) Mean (SK-UT-1; 3.17E−03 microM): 57.1% | Relative cell count (%) Mean (SK-UT-1; 3.18E−04 microM): 72.6% | Relative cell count (%) Mean (SK-UT-1; 3.18E−05 microM): 98.4% | EC50 (T24; Homo sapiens, T-24, 72 h, T24, 3-day incubation, read-out: Cell Count EC50): 0.102 nM | GI50 (T24; Homo sapiens, T-24, 72 h, T24, 3-day incubation, read-out: Cell Count GI50): 0.475 nM | IC50 (T24; Homo sapiens, T-24, 72 h, T24, 3-day incubation, read-out: Cell Count IC50): 0.905 nM | Cell Count Activity Area (T24; T24, scale 0-10): 4.92 | Relative cell count (%) Mean (T24; 1.00E+00 microM): 38.7% | Relative cell count (%) Mean (T24; 1.00E−01 microM): 41.3% | Relative cell count (%) Mean (T24; 1.00E−02 microM): 43.9% | Relative cell count (%) Mean (T24; 1.00E−03 microM): 49.5% | Relative cell count (%) Mean (T24; 1.01E−04 microM): 68.7% | Relative cell count (%) Mean (T24; 3.16E−01 microM): 37.1% | Relative cell count (%) Mean (T24; 3.17E−02 microM): 42.0% | Relative cell count (%) Mean (T24; 3.17E−03 microM): 46.0% | Relative cell count (%) Mean (T24; 3.18E−04 microM): 57.0% | Relative cell count (%) Mean (T24; 3.18E−05 microM): 84.1% | Relative cell count (%) Mean (SK-N-AS; 1.00E+00 microM): 45.8% | Relative cell count (%) Mean (SK-N-AS; 1.00E−01 microM): 51.0% | Relative cell count (%) Mean (SK-N-AS; 1.00E−02 microM): 53.6% | Relative cell count (%) Mean (SK-N-AS; 1.00E−03 microM): 62.3% | Relative cell count (%) Mean (SK-N-AS; 1.01E−04 microM): 84.8% | Relative cell count (%) Mean (SK-N-AS; 3.16E−01 microM): 48.3% | Relative cell count (%) Mean (SK-N-AS; 3.17E−02 microM): 52.4% | Relative cell count (%) Mean (SK-N-AS; 3.17E−03 microM): 56.7% | Relative cell count (%) Mean (SK-N-AS; 3.18E−04 microM): 77.7% | Relative cell count (%) Mean (SK-N-AS; 3.18E−05 microM): 102.1% | EC50 (SK-N-AS; Homo sapiens, 72 h, 3-day incubation, read-out: Cell Count EC50): 0.283 nM | GI50 (SK-N-AS; Homo sapiens, 72 h, 3-day incubation, read-out: Cell Count GI50): 0.826 nM | IC50 (SK-N-AS; Homo sapiens, 72 h, 3-day incubation, read-out: Cell Count IC50): 7.35 nM | Cell Count Activity Area (SK-N-AS; scale 0-10): 3.99
